Measurements: patent US20080279961A1, “TELOMERE TARGETING AGENTS AS STEM CELLS DIRECTED TREATMENTS” (priority 2007, published 2008)

What was measured:
Assay in all cases: human tumor stem cell assay (HTCA)/clonogenic assay
Assay type in all cases: cell-based
UXF1138L cells = conditions: UXF1138L colonies; read-out: IC50 colony growth in the HTCA
Protocol: (§1) In human tumor stem cell assay (HTCA)/clonogenic assay, single cell suspensions from in vivo studies above were washed in medium and passed through sieves and the resulting single cell suspensions seeded into soft agar (n=3 tumors per group) as described by us before (Fiebig et al., 2004). Single cell suspensions of cell lines were prepared by trypsinization from cells growing as monolayers on plastic. Briefly, 5,000 (HEK293T cells), 10,000 (PC3, MCF-7 and UXF1138L cells) or 50,000 (UXF1138L tumor tissue) vital cells were added to 0.2 ml Iscove's medium/20% fetal bovine serum/0.05% gentamycin containing 0.4% agar and plated on top of a base layer consisting of 0.2 ml medium with 0.75% agar. The next day, the agar layers were fed with Isocve's medium and cultures incubated at 37° C., 7% CO2 for approximately 11 days. Vital colonies were stained with 2-(4-iodophenyl)-3-(4-nitrophenyl)-5-phenyltetrazolium chloride (1 mg/ml) 24 hrs before evaluation, and colonies >70 μm were counted with an automated image analysis system (Omincon FAS IV, BIOSYS GmbH, Karben, Germany). Drug effect was assessed as growth inhibitory concentrations 50 and 70% (IC50, IC70). Methylcellulose was used to grow cord blood stem cells instead of soft agar. The seeding density was 20,000 cells/well. Stem cell growth factor supplemented and optimized methylcellulose (Methocult H4434) was purchased from Stem Cell Technologies (Vancouver, CA). Methylcellulose lacking growth factors was used as negative growth control. Statistical significance between treatment groups was evaluated by using the Student T-test.
(§2) The growth inhibitory activity of RHPS4 in human bulk tumor cells have been compared, by MTT assay, against RHPS4 activity in tumor cells grown as colonies in the clonogenic assay, also termed the human tumor stem cell assay (HTCA) (FIG. 2A-B). HEK293T human embryonic kidney cells grown in the HTCA, and cord blood cells cultured in methylcellulose were also treated with RHPS4 (FIG. 2C). The MTT assay is a 5 day proliferation test measuring effects on a morphologically heterogeneous, differentiated cell population (bulk cells), whereas the HTCA and methylcellulose assays are longer term (10-15 day) tests in which only a very small fraction of a bulk culture (˜0.1-1%) will grow as colonies. Cells growing anchorage-independently as colonies in a semi-solid matrix are considered to be pluripotent stem cells (Hamburger & Salmon, 1977; Locke et al., 2005; Fiebig et al. 2004). […] Similar observations were made with the breast cancer cell line MCF-7 (shown in FIG. 2B, HTCA IC50=0.04 microM; bulk cell IC50=2 microM).

PC3 cells = conditions: PC3 colonies; read-out: IC50 colony growth in the HTCA
Protocol: as §1, §2

MCF-7 cells = tested on: MCF-7 cells
Protocol: as §1, §2

Compound: COS(=O)(=O)[O-].Cc1cc2c3c([n+](C)c4ccc(F)cc4c3c1)-c1cc(F)ccc1N2C [RHPS4, 3,11-difluoro-6,8,13-trimethyl-8H-quino[4,3,2-kl]acridinium methosulfate]
- IC50 (UXF1138L cells): 20 nM
- IC50 (PC3 cells): 30 nM
- activity in colonies (HTCA) versus whole cell populations (MCF-7 cells; MCF-7): two log-fold
- IC50 (MCF-7 cells; MCF-7 colonies, read-out: IC50 colony growth in the HTCA): 40 nM
